Data on one compound can be found in patent publication US10869476B2 (priority 2015, dated 2020).

Holding throughout (type): in vivo
In assay [1] the test system is Gibberella zeae. The following applies: winter wheat kernels after harvest, Germany 2015; 75 g a.i./ha, 100 EC formulation plus adjuvant, BBCH 65; HPLC-MS/MS; Untreated Control 497.
Assay [2] has as its system Fusarium. The following applies: wheat, 100 EC, 67 days after application.
Assay [3] concerns Fusarium head blight. The note with it: wheat field trials France and Germany 2016; for Fusarium head blight in % sev. after 11 to 20 days after application: UTC 13; for Fusarium head blight in % sev. after 21 to 46 days after application: UTC 35.

Where two headings read alike, the source gives them in different places. Bounds are passed on as bounds.

As for `CON(C(=O)c1cn(C)nc1C(F)F)C(C)Cc1c(Cl)cc(Cl)cc1Cl` (stereo not shown) [Pydiflumetofen, 3-(Difluoromethyl)-N-methoxy-1-methyl-N-[1-(2,4,6-trichlorophenyl)-2-propanyl]-1H-pyrazole-4-carboxamide], the “Deoxynivalenol Content” value in assay [1] came out at 44 ppm. The “3- Acetyl Deoxynivalenol” value is 63 ppb in assay [2] (France, second trial (UTC 189), 45 g a.i./ha); less than 50 ppb in assay [2] (France, second trial (UTC 189), 60 g a.i./ha); 0 ppb in assay [2] (Germany, second trial (UTC 56), 45 g a.i./ha); 0 ppb in assay [2] (Germany, second trial (UTC 56), 60 g a.i./ha). Besides, the Nivalenol in assay [2] (Germany, first trial (UTC 126), 45 g a.i./ha) came out at 0 ppb; in assay [2] (Germany, first trial (UTC 126), 60 g a.i./ha) it was 0 ppb; in assay [2] (Germany, second trial (UTC 159), 45 g a.i./ha), 0 ppb; in assay [2] (Germany, second trial (UTC 159), 60 g a.i./ha), 0 ppb. Besides, the figures for the “Fusarium head blight in % sev. after 11 to 20 days after application” value in assay [3] (45 g a.i./ha) and in assay [3] (60 g a.i./ha) were 42 % sev and 52 % sev, respectively. The “Fusarium head blight in % sev. after 21 to 46 days after application” value in assay [3] (45 g a.i./ha) is 51 % sev; in assay [3] (60 g a.i./ha) it was 64 % sev.
